According to patent publication US9681664B2, “Macrocyclic picolinamides as fungicides” (Dow Agrosciences LLC, priority 2012, dated 2017):
Like-named read-outs stand apart in the source and are kept apart here.

Columns and labels:
[1] = test system: Mycosphaerella graminicola; Anamorph: Septoria tritici; assay: Leaf blotch of wheat (SEPTTR) disease control on wheat seedlings; assay type: in vivo; conditions: Zymoseptoria tritici, Wheat Leaf Blotch; for pest or weed control at 100 ppm: high volume application; for pest or weed control at 121.5 g/ha: low volume application, 121.5 g/H
Summary of the method: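 Wheat seedlings (Yuma, first leaf emerged) sprayed to run-off with compound in acetone/water with 110 ppm Triton X-100, or track-sprayed as EC with 0.1% Trycol 5941. Septoria tritici spores inoculated before or after treatment. Dew chambers, then 20 °C greenhouse. Percent disease control derived from severity (0–100%) relative to untreated plants.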

[2] = test system: Puccinia triticina; Synonym: Puccinia recondite f. sp. tritici; assay: Wheat brown rust (PUCCRT) disease control on wheat seedlings; assay type: in vivo; conditions: Puccinia triticina, Wheat Brown Rust; for pest or weed control at 100 ppm: high volume application; for pest or weed control at 121.5 g/ha: low volume application, 121.5 g/H
Summary of the method: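 Acetone solutions diluted in nine volumes of water with 110 ppm Triton X-100 sprayed to run-off on first-leaf Yuma wheat seedlings (track spray: EC with 0.1% Trycol 5941). Puccinia triticina spores inoculated before or after treatment; overnight dark dew at 22° C., 100% RH, then greenhouse at 24° C. for disease development.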

[3] = 24 h, 1 Day Protectant, read-out: Disease Control SEPTTR 1 DP 100 ppm
[4] = 24 h, 1 Day Protectant, read-out: Disease Control SEPTTR 1 DP 121.5 g/H
[5] = 72 h, 3 Day Curative, read-out: Disease Control SEPTTR 3 DC 100 ppm
[6] = 72 h, 3 Day Curative, read-out: Disease Control SEPTTR 3 DC 121.5 g/H
[7] = 24 h, 1 Day Protectant, read-out: Disease Control PUCCRT 1 DP 100 ppm
[8] = 24 h, 1 Day Protectant, read-out: Disease Control PUCCRT 1 DP 121.5 g/H
[9] = 72 h, 3 Day Curative, read-out: Disease Control PUCCRT 3 DC 100 ppm
[10] = 72 h, 3 Day Curative, read-out: Disease Control PUCCRT 3 DC 121.5 g/H

Structure (SMILES) | pest or weed control at 100 ppm [1, 3] [%] | pest or weed control at 121.5 g/ha [1, 4] [%] | pest or weed control at 100 ppm [1, 5] [%] | pest or weed control at 121.5 g/ha [1, 6] [%] | pest or weed control at 100 ppm [2, 7] [%] | pest or weed control at 121.5 g/ha [2, 8] [%] | pest or weed control at 100 ppm [2, 9] [%] | pest or weed control at 121.5 g/ha [2, 10] [%]
COc1ccnc(C(=O)N[C@H]2CCC[C@H](Oc3ccccc3)[C@@H](OC(=O)C3CCCC3)[C@H](C)OC2=O)c1OCOC(C)=O [F233] | 80 to 100 | 80 to 100 | 80 to 100 | 80 to 100 | 80 to 100 | 80 to 100 | 80 to 100 | 0 to 80
COc1ccnc(C(=O)N[C@H]2CCC[C@H](Oc3ccccc3)[C@@H](OC(=O)C3CCCC3)[C@H](C)OC2=O)c1OCOC(=O)C(C)C [F234] | 80 to 100 | 80 to 100 | 80 to 100 | < 0 | 80 to 100 | 80 to 100 | 80 to 100 | < 0
COc1ccnc(C(=O)N[C@H]2CCC[C@H](Oc3ccccc3)[C@@H](OC(=O)C3CCCC3)[C@H](C)OC2=O)c1OC(C)=O [F235] | 80 to 100 | 80 to 100 | 80 to 100 | 0 to 80 | 80 to 100 | 80 to 100 | 80 to 100 | 0 to 80
COc1ccnc(C(=O)N[C@H]2CCC[C@H](Oc3ccccc3)[C@@H](OC(=O)C3CCCC3)[C@H](C)OC2=O)c1OC(=O)C1CC1 [F236] | 0 to 80 | 80 to 100 | 0 to 80 | 0 to 80 | 80 to 100 | 0 to 80 | 0 to 80 | < 0
COc1ccnc(C(=O)N[C@H]2CCC[C@H](Oc3ccccc3)[C@@H](OC(=O)C3CC3)[C@H](C)OC2=O)c1O [F239] | < 0 | – | 0 to 80 | – | 0 to 80 | – | < 0 | –
COc1ccnc(C(=O)N[C@H]2CCC[C@H](Oc3ccccc3)[C@@H](OC(=O)C3CC3)[C@H](C)OC2=O)c1OCOC(C)=O [F240] | 80 to 100 | 80 to 100 | 80 to 100 | 80 to 100 | 80 to 100 | 80 to 100 | 80 to 100 | 80 to 100
C=C(C)CO[C@H]1CCC[C@H](NC(=O)c2nccc(OC)c2O)C(=O)O[C@@H](C)[C@@H]1OC [F245] | 0 to 80 | – | 80 to 100 | – | 80 to 100 | – | 0 to 80 | –
COc1ccnc(C(=O)N[C@H]2CCC[C@H](OCC(C)C)[C@@H](OC)[C@H](C)OC2=O)c1O [F247] | 80 to 100 | – | 0 to 80 | – | 80 to 100 | – | 80 to 100 | –
COc1ccnc(C(=O)N[C@H]2CCC[C@H](Oc3ccccc3)[C@@H](OC)[C@H](C)OC2=O)c1O [F249] | 0 to 80 | – | 0 to 80 | – | 80 to 100 | – | 80 to 100 | –
C=C(C)CO[C@H]1CCC[C@H](NC(=O)c2nccc(OC)c2OC(C)=O)C(=O)O[C@@H](C)[C@@H]1OC [F256] | – | < 0 | – | 0 to 80 | – | 0 to 80 | – | 80 to 100
COc1ccnc(C(=O)N[C@H]2CCC[C@H](OCC(C)C)[C@@H](OC)[C@H](C)OC2=O)c1OC(C)=O [F257] | – | 80 to 100 | – | 80 to 100 | – | 80 to 100 | – | 80 to 100
COc1ccnc(C(=O)N[C@H]2CCC[C@H](Oc3ccccc3)[C@@H](OC)[C@H](C)OC2=O)c1OC(C)=O [F258] | – | 0 to 80 | – | 0 to 80 | – | 80 to 100 | – | 80 to 100
COCCC(=O)Oc1c(OC)ccnc1C(=O)N[C@H]1CCC[C@H](OCC(C)C)[C@@H](OC)[C@H](C)OC1=O [F259] | – | < 0 | – | 80 to 100 | – | 80 to 100 | – | 80 to 100
COCCC(=O)Oc1c(OC)ccnc1C(=O)N[C@H]1CCC[C@H](Oc2ccccc2)[C@@H](OC)[C@H](C)OC1=O [F260] | – | 0 to 80 | – | 80 to 100 | – | 80 to 100 | – | 80 to 100
